Results: paper PMC11546786, “Designing Analogs of SAAP-148 with Enhanced Antimicrobial and Anti-LPS Activities” (International Journal of Molecular Sciences, 2024)
Ends that are not written are not given here.

Key:
[1] = system: human erythrocytes versus five bacterial strains; assay: Therapeutic index (MHC/GM of MIC); details: for Fold (TI of analogue compared with SAAP-148): TI change relative to SAAP-148; for TI (MHC/MIC): ratio of MHC to geometric mean of MIC (five strains)
Experimental: The geometric mean of minimum inhibitory concentration (MIC) values (GM) from the five strains was calculated to provide a comprehensive assessment of antimicrobial activity, as presented in Table 4.
The therapeutic index (TI) is a widely utilized parameter for indicating the specificity of antimicrobial agents, which is determined by the ratio of MHC (hemolytic activity) and MIC (antimicrobial activity). Consequently, larger TI values signify greater antimicrobial specificity. The TI can be enhanced through one of three mechanisms: increasing antimicrobial activity, reducing hemolytic activity while maintaining antimicrobial activity, or a combination of both augmenting antimicrobial activity and diminishing hemolytic activity.

[2] = system: five bacterial strains; assay: MICs against all five bacterial strains (geometric mean, range); type: cell-based; design: unit not given here; details: geometric mean of MICs against all five bacterial strains
Experimental: (§1) The antibacterial activities of the peptides against […] were evaluated using a modified version of the Clinical Laboratory and Standards Institute (CLSI) broth microdilution method, as previously described. Briefly, the bacteria were cultured in liquid LB medium (comprising 10 g/L tryptone, 5 g/L yeast extract, and 10 g/L NaCl) at 37 °C until reaching mid-log phase. Subsequently, the bacterial concentration was adjusted to 1 × 10^6 colony-forming units (CFU)/mL. The peptides were then diluted serially with phosphate-buffered saline (PBS), followed by the addition of 50 μL of the diluted peptides to 50 μL of the bacterial suspension in a 96-well plate (Corning Inc., Lowell, MA, USA). After incubating at 37 °C for 18 to 20 h, the absorbance of each well was measured using a multi-well microplate reader (SpectraMax M5; Molecular Devices, Sunnyvale, CA, USA) at 600 nm.

[3] = system: Staphylococcus aureus (1.8721); type: cell-based
Source text: (§2) The LL-37, SAAP-148 and its analogues peptides were synthesized according to the standard Fmoc procedure. The Fmoc-protected resin and monomers are first treated with a basic solvent (piperidine) to remove the amino protecting groups. The carboxyl group of the next amino acid is activated by an activator. The activated monomer reacts with the free amino group to form a peptide bond. These two steps are repeated in a cycle until the synthesis is complete. After synthesis, the peptide is eluted from the column and purified by reverse-phase semipreparative high-performance liquid chromatography as detailed in Table 1. The peptides were dissolved in PBS to create a 1000 μmol/L stock solution for subsequent use. The purity of the synthetic peptide exceeded 95%. Blood samples from healthy donors were obtained from the Fifth Medical Center of Chinese PLA General Hospital (Beijing, China). Human normal lung epithelial cells (BEAS-2B) and mouse mononuclear macrophages cells (RAW 264.7) were sourced from Beyotime Biotechnology (Beijing, China), along with the Enhanced Cell Counting Kit-8 (CCK-8) and nitric oxide detection kit. RPMI-1640 and DMEM were procured from Merck (Darmstadt, Germany), while FBS was obtained from ExCell Bio (Shanghai, China). LPS-B5 (from E. coli 055:B5) was procured from Invivogen (Toulouse, France). Five bacterial strains, including Escherichia coli (1.8732), Pseudomonas aeruginosa (1.2421), Klebsiella pneumonia (1.1736) as Gram-negative bacteria, and Staphylococcus aureus (1.8721) and Staphylococcus epidermidis (1.4260) as Gram-positive bacteria, were procured from the China General Microbiological Culture Collection Centre (CGMCC) (Beijing, China).
as §1

[4] = system: Escherichia coli (1.8732); type: cell-based
Source text: as §2, §1

[5] = system: Pseudomonas aeruginosa (1.2421); type: cell-based
Source text: as §2, §1

[6] = system: Staphylococcus epidermidis (1.4260); type: cell-based
Source text: as §2, §1

[7] = Reversed-phase HPLC retention time as measure of peptide hydrophobicity; type: physicochemical; details: retention time by reverse-phase HPLC, reflects hydrophobicity difference between analogues
Source text: The physicochemical parameters crucial for the antimicrobial activity of AMPs have been identified, encompassing net charge, helicity, hydrophobicity, and amphipathicity. The hydropathicity, mean relative hydrophobic moment, and charge of peptides were predicted using the HeliQuest (https://heliquest.ipmc.cnrs.fr/ (accessed on 12 March 2024)). Lysine is a hydrophilic amino acid, and its substitution leads to a decrease in the hydrophobicity of the SAAP-148 analogue. The anticipated results are consistent, with the degree of reduction in […] varying depending on the position at which lysine is substituted (Table 2). The amphipathicity of the peptides, as denoted by the μH (mean relative hydrophobic moment), is elaborated on in Table 2. The hydrophobic moment of SAAP-148 analogues was decreased except for SAAP-10, which is on account of the substitution occurring on the18th residue. (Figure 1) The 18th residue of SAAP-148 is glutamine, a polar amino acid residue, located at the junction of the hydrophobic and hydrophilic surfaces of the SAAP-148 α-helix. […] The retention time data determined by reversed-phase high-performance liquid chromatography (RP-HPLC) reflects the hydrophobicity difference between peptide analogues. It is well documented that the formation of a hydrophobic-binding domain due to peptide secondary structure can affect peptide interactions with reversed-phase matrices. This effect was observed particularly for amphipathic α-helical peptides. Given this preferred binding domain, amphipathic α-helical peptides are considerably more retentive than non-amphipathic peptides with the same amino acid composition.
This phenomenon was particularly evident in the case of amphipathic α-helical peptides. […] This discrepancy may be attributed to the lack of a well-defined α-helical structure in SAAP-148 and its analogues (Figure S1).

[8] = system: human erythrocytes; assay: Haemolytic activity; type: cell-based
Experimental: The haemolytic activity of the peptides was evaluated using a standard procedure with minor adjustments. Fresh human erythrocytes were washed thrice and subsequently resuspended at 1.25% haematocrit in PBS. Forty microlitres PBS-diluted peptide solution was added to a 96-well plate (Corning Inc., Lowell, MA, USA), and 160 μL of erythrocytes was added. After incubation at 37 °C for 30 min, the samples were centrifuged, and the absorbance of the supernatant was measured at 450 nm using a multi-well microplate reader (SpectraMax M5; Molecular Devices, Sunnyvale, CA, USA) and compared with the 100% haemolysis caused by 0.1% Triton X-100. The percentage of haemolysis was calculated according to the equation: Haemolysis%=Asample−Ablank/Atriton−Ablank×100

[9] = CD spectra, secondary structure by BeStSel; type: physicochemical; details: 30 μM SDS as printed, 100 μM peptide, 25 °C
Experimental: CD spectra (Figure S1) were acquired using a JASCO J-1500 spectropolarimeter (JASCO Inc., Easton, MD, USA) in 0.1 cm pathlength cells under nitrogen at 25 °C. The spectra were recorded in the range of 190 to 250 nm at a peptide concentration of 100 μM in SDS. Secondary structure was determined using the BeStSel server. Hydropathicity, mean relative hydrophobic moment, and charge of peptides were predicted using the HeliQuest (https://heliquest.ipmc.cnrs.fr/ (accessed on 12 March 2024)). The 3D structure of SAAP-148 and its analogues (Figure S2) was predicted using PEP-FOLD4 servers (https://bioserv.rpbs.univ-paris-diderot.fr/services/PEP-FOLD4/ (accessed on 19 June 2024)).

[10] = system: Gram-negative bacteria (E. coli, P. aeruginosa, K. pneumoniae); assay: Geometric mean of MICs against Gram-negative bacteria; type: cell-based; design: unit not given here
Experimental: as §1

[11] = system: Gram-positive bacteria (S. aureus, S. epidermidis); assay: Geometric mean of MICs against Gram-positive bacteria; type: cell-based; design: unit not given here
Experimental: as §1

[12] = system: Klebsiella pneumonia (1.1736); type: cell-based, Klebsiella pneumoniae
Source text: as §2, §1

Substance: LKRVWKRVFKLLKRYWRQLKKKVR-NH2 [SAAP-12]
- Fold (TI of analogue compared with SAAP-148) [1]: 0.36
- TI (MHC/MIC) [1]: 0.04
- MIC (GM) [2]: 18.95
- MIC S. aureus [3]: 25.00 µM
- MIC E. coli [4]: 12.50 µM
- MIC P. aeruginosa [5]: 12.50 µM
- MIC S. epidermidis [6]: 6.25 µM
- Rt [7]: 16.604 min
- haemolytic activity compared with SAAP-148 [8]: comparable hemolytic activity to SAAP-148
- Others [9]: 0%
- Turn [9]: 0%
- α-Helix [9]: 100%
- β-Antiparallel [9]: 0%
- β-Parallel [9]: 0%
- GM to G− [10]: 25
- GM to G+ [11]: 12.5
- MIC K. pneumoniae [12]: 100.00 µM

Substance: LKRVWKRVFKLLKRYWRQKKKPVR-NH2 [SAAP-11]
- Fold (TI of analogue compared with SAAP-148) [1]: 0.45
- TI (MHC/MIC) [1]: 0.05
- MIC (GM) [2]: 14.36
- MIC S. aureus [3]: 50.00 µM
- MIC E. coli [4]: 6.25 µM
- MIC P. aeruginosa [5]: 6.25 µM
- MIC S. epidermidis [6]: 3.13 µM
- Rt [7]: 15.926 min
- Others [9]: 0%
- Turn [9]: 0%
- α-Helix [9]: 100%
- β-Antiparallel [9]: 0%
- β-Parallel [9]: 0%
- GM to G− [10]: 15.75
- GM to G+ [11]: 12.51
- MIC K. pneumoniae [12]: 100.00 µM

Substance: LKRVWKRVKKLLKRYWRQLKKPVR-NH2 [SAAP-5]
- Fold (TI of analogue compared with SAAP-148) [1]: 10.45
- TI (MHC/MIC) [1]: 1.15
- MIC (GM) [2]: 5.44
- MIC S. aureus [3]: 25.00 µM
- MIC E. coli [4]: 1.56 µM
- MIC P. aeruginosa [5]: 6.25 µM
- MIC S. epidermidis [6]: 3.13 µM
- Rt [7]: 10.681 min
- Others [9]: 0%
- Turn [9]: 0%
- α-Helix [9]: 100%
- β-Antiparallel [9]: 0%
- β-Parallel [9]: 0%
- GM to G− [10]: 3.94
- GM to G+ [11]: 8.85
- MIC K. pneumoniae [12]: 6.25 µM

Substance: LKRVWKRVFKLLKRYKRQLKKPVR-NH2 [SAAP-9]
- Fold (TI of analogue compared with SAAP-148) [1]: 9.09
- TI (MHC/MIC) [1]: 1.00
- MIC (GM) [2]: 6.25
- MIC S. aureus [3]: 50.00 µM
- MIC E. coli [4]: 3.13 µM
- MIC P. aeruginosa [5]: 1.56 µM
- MIC S. epidermidis [6]: 3.13 µM
- Rt [7]: 11.941 min
- Others [9]: 0%
- Turn [9]: 0%
- α-Helix [9]: 100%
- β-Antiparallel [9]: 0%
- β-Parallel [9]: 0%
- GM to G− [10]: 3.94
- GM to G+ [11]: 12.51
- MIC K. pneumoniae [12]: 12.50 µM
